Patent US10111892B2, “Anti-cancer agent” (priority 2009, dated 2018)

Experiments:
[1] = system: A375 (malignant melanoma); assay: In vitro anti-tumor activity test (MTT), A375 cells; format: cell-based; settings: 48 hours of culture
Method: (§1) [In Vitro Anti-Tumor Activity Test]
(§2) The phosphine transition metal complexes obtained in the examples and the comparative examples were subjected to an in vitro anti-tumor activity test. Specifically, KB (oral squamous cell carcinoma) and A375 (malignant melanoma) were used as cancer cells, and these cells were cultured in an incubator at 37° C. in a culture medium (RPMI-1640 or DEME) to which 10% inactivated fetal calf serum, L-glutamine, sodium pyruvate, 1×10^5 U/L of penicillin, and 100 mg/L of streptomycin had been supplemented. The cells were added such that each well contained 2×10^5 cells. Subsequently, the phosphine transition metal complex dissolved in dimethylsulfoxide was added to the medium and cultured for 48 hours. After the 48 hours of culture, a 5 mg/ml (3,[4,5-dimethylthiazol-2-yl]-2,5-diphenyltetrazolium bromide MTT) solution was added at 20 μl to each well, followed by culture for 3 to 4 hours in an incubator. Thereafter, 100 μl of a solution was further added to each well to completely solubilize the generated formazan crystals. The absorbance of the resultant at 492 nm was then measured, and IC50 was calculated.

KM rats = assay: Toxicity test, single oral administration to rats; format: in vivo; settings: for Oral administration LD50: male and female KM rats, single oral dose in corn oil, observed to the fourteenth day
Method: Toxicity caused when the phosphine transition metal complexes obtained in the examples and the comparative examples were orally administered to rats was tested. Specifically, male and female KM rats were quarantined and raised while being acclimated, and then the selected 20 rats in total including 10 male rats and 10 female rats were formed into a group. The phosphine transition metal complexes obtained in the examples and comparative examples were orally administered once to rats which were fasted over night before the administration and whose weights were recorded, by using corn oil as a solvent and with a design such that a group showing sufficient fatal cases was included to determine LD50.

[2] = system: KB (oral squamous cell carcinoma); assay: In vitro anti-tumor activity test (MTT), KB cells; format: cell-based; settings: 48 hours of culture
Method: as §1, §2

Row | Molecule | In vitro anti-tumor activity IC50, A375 [1] | Oral administration LD50 (KM rats) | In vitro anti-tumor activity IC50, KB [2] | toxicity (in words) (KM rats; oral administration to rats, compared with the other complexes)
1 | CP(c1nc2ccccc2nc1P(C)C(C)(C)C)C(C)(C)C.CP(c1nc2ccccc2nc1P(C)C(C)(C)C)C(C)(C)C.[Au+].[Cl-] (stereo not shown) [Example 1, bis(2,3-bis(tert-butylmethylphosphino)quinoxaline)gold(I) chloride] | 1.13 µg/mL | 134.37 mg/kg | 0.94 µg/mL | –
2 | Bis(2,3-bis(tert-butylmethylphosphino)quinoxaline) gold(I) chloride [Example 2] | 1.94 µg/mL | 97.44 mg/kg | 1.03 µg/mL | –
3 | CP(c1nc2ccccc2nc1P(C)C(C)(C)C)C(C)(C)C.CP(c1nc2ccccc2nc1P(C)C(C)(C)C)C(C)(C)C.[Au+].[Cl-] (stereo not shown) [Example 3, Bis(2,3-bis(tert-butylmethylphosphino)quinoxaline)gold(I) chloride] | 1.22 µg/mL | 118.66 mg/kg | 0.97 µg/mL | –
4 | CP(c1nc2ccccc2nc1P(C)C(C)(C)C)C(C)(C)C.CP(c1nc2ccccc2nc1P(C)C(C)(C)C)C(C)(C)C.[Au+].[Cl-] (stereo not shown) [Comparative Example 1, Bis(2,3-bis(tert-butylmethylphosphino)quinoxaline)gold(I) chloride, reference compound] | 2.26 µg/mL | 90.99 mg/kg | 1.11 µg/mL | relatively high
